Data: publication PMC3646888 (PLoS ONE, 2013)

Experiments:
CYP2C6 = target: T1, CYP2C6 (Rattus norvegicus, UniProt P05178); assay: Fluorescence-based CYP assay, recombinant CYP2C6, substrate EFC; format: in vitro ADME
T1 sequence (P05178 1-490): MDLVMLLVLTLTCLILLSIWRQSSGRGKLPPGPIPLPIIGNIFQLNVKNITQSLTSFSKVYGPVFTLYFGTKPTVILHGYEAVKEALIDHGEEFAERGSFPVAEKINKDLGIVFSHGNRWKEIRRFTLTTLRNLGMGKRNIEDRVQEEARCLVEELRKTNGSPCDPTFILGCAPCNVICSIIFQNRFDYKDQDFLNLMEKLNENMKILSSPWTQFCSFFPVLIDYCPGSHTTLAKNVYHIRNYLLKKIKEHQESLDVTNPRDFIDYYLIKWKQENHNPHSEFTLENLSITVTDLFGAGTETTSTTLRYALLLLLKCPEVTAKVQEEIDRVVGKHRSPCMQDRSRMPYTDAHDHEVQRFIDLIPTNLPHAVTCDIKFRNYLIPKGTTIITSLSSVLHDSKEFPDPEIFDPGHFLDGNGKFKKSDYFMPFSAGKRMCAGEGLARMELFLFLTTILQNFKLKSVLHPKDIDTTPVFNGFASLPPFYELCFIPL
Protocol: (§1) These assays were performed by methods similar to those described by VanAlstine and Hough, Stresser et al., Wulff et al., Henderson et al., and Crespi et al., with minor modifications. All incubations were performed in a final volume of 200 µL of 50 mM potassium phosphate buffer at pH 7.4 containing 1% acetonitrile. CYP inhibitor studies were performed according to the parameters of Table 1. Substrate concentrations were chosen to be near known Km values. As described in the references cited, two different NADPH regenerating systems were used depending on the substrates used (Table 1). Inhibitors were added to either “low” NADPH-regenerating system (final concentration of 8.1 µM NADP^+, 0.4 mM glucose-6-phosphate, 0.4 mM magnesium chloride, 0.2 U/mL glucose-6-phosphate dehydrogenase) or to “high” NADPH-regenerating system (final concentration of 1.3 mM NADP^+, 3.3 mM glucose-6-phosphate, 3.3 mM magnesium chloride, 0.4 U/mL glucose-6-phosphate dehydrogenase) in a total of 0.1 mL buffer. […] For assays utilizing “low” regenerating systems, product formation was monitored continuously by a Victor3 1420 Multilabel Plate Counter at the designated wavelengths (Table 1). […] Product formation was then measured at the designated wavelengths (Table 1). […]

CYP2B1 = target: T2, CYP2B1 (Rattus norvegicus, UniProt P00176); assay: Fluorescence-based CYP assay, recombinant CYP2B1, substrate EFC; format: in vitro ADME
T2 sequence (P00176 1-491): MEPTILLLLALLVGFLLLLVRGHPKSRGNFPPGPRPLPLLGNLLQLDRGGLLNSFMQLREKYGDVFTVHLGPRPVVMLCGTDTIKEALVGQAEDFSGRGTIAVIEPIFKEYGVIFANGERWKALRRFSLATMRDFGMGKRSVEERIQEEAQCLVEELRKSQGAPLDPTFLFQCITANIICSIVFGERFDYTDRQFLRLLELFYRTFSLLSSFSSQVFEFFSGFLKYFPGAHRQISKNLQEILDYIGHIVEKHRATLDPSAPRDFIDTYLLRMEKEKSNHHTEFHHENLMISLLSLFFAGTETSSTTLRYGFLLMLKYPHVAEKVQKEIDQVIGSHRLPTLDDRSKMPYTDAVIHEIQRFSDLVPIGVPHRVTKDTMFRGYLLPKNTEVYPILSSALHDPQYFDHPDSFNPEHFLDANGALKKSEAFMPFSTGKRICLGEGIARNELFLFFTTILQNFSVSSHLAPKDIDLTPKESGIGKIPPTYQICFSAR
Protocol: as §1

CYP2C19 = CYP2C19 (Homo sapiens, UniProt P33261); assay: Fluorescence-based CYP assay, recombinant CYP2C19, substrate DBF; format: in vitro ADME
Protocol: as §1

CYP3A4 [1] = target: T3, CYP3A4 (Homo sapiens, UniProt P08684); design: method as in PMID 10884437; details: 10 µM; cited from earlier work
CYP3A4 [2] = target: T3, CYP3A4; assay: Fluorescence-based CYP3A4 assay with BFC as substrate; format: in vitro ADME
Protocol: These assays were performed by methods similar to those described by VanAlstine and Hough, Stresser et al., Wulff et al., Henderson et al., and Crespi et al., with minor modifications. All incubations were performed in a final volume of 200 µL of 50 mM potassium phosphate buffer at pH 7.4 containing 1% acetonitrile. CYP inhibitor studies were performed according to the parameters of Table 1. Substrate concentrations were chosen to be near known Km values. As described in the references cited, two different NADPH regenerating systems were used depending on the substrates used (Table 1). […] Samples were pre-incubated at 37°C for the designated times, and the reactions were initiated with the addition of a substrate and enzyme mixtures (Table 1). […] For the assays utilizing the “high” regenerating system, enzyme reactions were terminated at the designated time by the addition of 75 µL of 2N NaOH, followed by a 2 h post-incubation at 37°C. Product formation was then measured at the designated wavelengths (Table 1). For the “low” regenerating system assays, blanks and standards were prepared in 0.1 mL buffer without the regenerating system. For the “high” regenerating system assays, blanks and standards containing 0.1 mL of buffer received 75 µL of 2N NaOH following pre-incubation.

T3 sequence (P08684 whole entry): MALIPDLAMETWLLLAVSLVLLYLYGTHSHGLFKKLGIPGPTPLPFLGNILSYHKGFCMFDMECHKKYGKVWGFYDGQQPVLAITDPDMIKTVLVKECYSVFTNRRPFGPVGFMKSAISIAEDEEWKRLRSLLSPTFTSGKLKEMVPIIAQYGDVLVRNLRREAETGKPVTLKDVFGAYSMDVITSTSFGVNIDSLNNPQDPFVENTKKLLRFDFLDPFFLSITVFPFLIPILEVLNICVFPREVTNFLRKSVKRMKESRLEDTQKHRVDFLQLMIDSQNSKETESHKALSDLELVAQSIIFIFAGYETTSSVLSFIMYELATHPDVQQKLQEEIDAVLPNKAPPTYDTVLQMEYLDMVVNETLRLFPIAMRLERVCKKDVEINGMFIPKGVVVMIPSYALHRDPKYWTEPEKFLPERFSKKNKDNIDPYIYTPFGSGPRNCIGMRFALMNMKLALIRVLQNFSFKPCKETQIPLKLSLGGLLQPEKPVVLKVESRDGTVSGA
CYP2C19, sequence (P33261 whole entry): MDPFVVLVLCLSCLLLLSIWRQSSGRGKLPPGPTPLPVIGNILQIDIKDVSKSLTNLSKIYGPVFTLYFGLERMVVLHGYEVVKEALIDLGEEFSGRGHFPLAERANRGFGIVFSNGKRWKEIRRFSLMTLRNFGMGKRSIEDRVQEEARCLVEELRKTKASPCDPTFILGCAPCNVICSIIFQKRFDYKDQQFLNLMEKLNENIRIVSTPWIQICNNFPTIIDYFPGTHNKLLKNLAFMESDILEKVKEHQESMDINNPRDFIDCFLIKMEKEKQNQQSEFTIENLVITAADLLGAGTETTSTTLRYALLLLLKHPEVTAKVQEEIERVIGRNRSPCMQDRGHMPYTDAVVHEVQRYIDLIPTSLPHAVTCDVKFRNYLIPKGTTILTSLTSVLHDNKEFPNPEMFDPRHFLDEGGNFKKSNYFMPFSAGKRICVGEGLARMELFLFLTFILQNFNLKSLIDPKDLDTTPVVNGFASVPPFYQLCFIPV

SMILES	Inhibition of CYP2C6 (in words) (CYP2C6; positive control)	Inhibition of CYP2B1 (in words) (CYP2B1; positive control)	Inhibition of CYP2C19 (in words) (CYP2C19; recombinant enzyme)	IC50 (CYP2C6; recombinant rat CYP2C6, EFC 5 µM) [nM]	Inhibition of CYP3A4 with BFC as substrate (in words) (CYP3A4 [1])	IC50 (CYP2B1) [µM]	IC50 (CYP2C19) [nM]	Effect on CYP3A4 activity with BFC (in words) (CYP3A4 [2]; substrate BFC)	Magnitude of stimulation of CYP3A4 with BFC (CYP3A4 [2]; substrate BFC 50 µM, maximum stimulation) [%]
Clc1ccccc1C(c1ccccc1)(c1ccccc1)n1ccnc1 [Clotrimazole]	potent inhibitor	potent inhibitor	potent inhibitor						
Clc1ccccc1C(c1ccccc1)(c1ccccc1)n1cccn1 [TRAM-34, 1-[(2-chlorophenyl)diphenylmethyl]-1H-pyrazole]				2900	did not inhibit	3	1800	concentration-dependent stimulation	~200
